Literature values, collected in patent publication US10676418B2, “Method for producing microparticles from pressurized and heated starting material solution” (M. TECHNIQUE CO., LTD., priority 2016, dated 2020).

Settings: 25° C.; normal temperature and pressure

solubility in ethanol: about 0.5 % by weight
SMILES: COc1cc(/C=C/C(=O)CC(=O)/C=C/c2ccc(O)c(OC)c2)ccc1O [curcumin]
